Data from US20240368163A1, “COMPOUNDS AND METHODS FOR MODULATING SPLICING” (REMIX THERAPEUTICS INC., priority 2021, published 2024).
Where two headings read alike, the source gives them in different places.

Key:
Format in all cases: cell-based, human
HTT [1] = assay: Splicing RT-qPCR assay, HTT mRNA canonical junction (CJ) and alternative junction (AJ); conditions: Homo sapiens; for AC50: increase in AJ mRNA
How it was run: (§1)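 Splice switching is measured in A673 or K562 cells after 24 h compound exposure (maximum 10 uM, 3-fold steps). Canonical and alternative junction mRNA levels are quantified by RT-qPCR relative to housekeeper and DMSO.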

MYB [2] = assay: Splicing RT-qPCR assay, MYB mRNA canonical junction (CJ) and alternative junction (AJ); conditions: Homo sapiens; for AC50: increase in AJ mRNA
How it was run: as §1

SMN2 = assay: Splicing RT-qPCR panel, SMN2 canonical junction (CJ) mRNA; conditions: Homo sapiens, read-out: SMN2 IC50 (decrease in CJ mRNA levels)
How it was run: as §1

Target C [3] = assay: Splicing RT-qPCR panel, Target C canonical junction (CJ) mRNA; conditions: Homo sapiens, read-out: Target C IC50 (decrease in CJ mRNA levels)
How it was run: as §1

MYB [4] = assay: HiBiT protein abundance assay, MYB; conditions: Homo sapiens, K562, 24 h, modified K562 cells
How it was run: (§2)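 HiBiT knock-in K562, 10000 cells/well, 24 h cpd at 37 °C/5% CO2; 10-pt 3-fold series from 10 μM final; DMSO ≤0.25%. Lytic detection, luminescence read. 4PL fit → IC50 vs DMSO control; unmodified K562 = baseline.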

HTT [5] = assay: HiBiT protein abundance assay, HTT; conditions: Homo sapiens, K562, 24 h, modified K562 cells
How it was run: as §2

Target C [6] = assay: HiBiT protein abundance assay, Target C; conditions: Homo sapiens, K562, 24 h, modified K562 cells
How it was run: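 Luminescence from lytic HiBiT detection, taken after 24 h compound exposure at 37 °C, reports tagged protein abundance in knock-in cells seeded at 10000 cells/well. Doses spanned 10 points, 3-fold steps, top 10 μM final. A four-parameter logistic fit gave the 50% abundance concentration (IC50).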

[7] = 24 h, A673 or K562 cells, 24 hours treatment, RT-qPCR
[8] = RT-qPCR panel, canonical junction mRNA, compound concentration having 50% response in CJ decrease, read-out: HTT IC50 (decrease in CJ mRNA levels)
[9] = 24 h, decrease in CJ mRNA, A673 or K562 cells, 24 hours treatment, RT-qPCR, read-out: MYB CJ IC50
[10] = RT-qPCR panel, canonical junction mRNA, compound concentration having 50% response in CJ decrease, read-out: MYB IC50 (decrease in CJ mRNA levels)
[11] = RT-qPCR panel, canonical junction mRNA, compound concentration having 50% response in CJ decrease
[12] = 24 h, decrease in CJ mRNA, A673 or K562 cells, 24 hours treatment, RT-qPCR, read-out: HTT CJ IC50
[13] = gene panel, CJ qPCR, protocol of Example 142, read-out: HTT IC50 (decrease in CJ mRNA levels)
[14] = gene panel, CJ qPCR, protocol of Example 142, read-out: MYB IC50 (decrease in CJ mRNA levels)
[15] = gene panel, CJ qPCR, protocol of Example 142

IC50 (HTT [1]; [13]) [µM]	IC50 (MYB [2]; [14]) [µM]	IC50 (SMN2; [15]) [µM]	IC50 (Target C [3]; [15]) [µM]	IC50 (MYB [4]; Table 13B) [µM]	IC50 (HTT [5]; Table 13B) [µM]	IC50 (Target C [6]; Table 13B) [µM]	Structure (SMILES)	AC50 (HTT [1]; [7]) [µM]	IC50 (HTT [1]; [8]) [µM]	IC50 (MYB [2]; [9]) [µM]	AC50 (MYB [2]; [7]) [µM]	IC50 (MYB [2]; [10]) [µM]	IC50 (SMN2; [11]) [µM]	IC50 (Target C [3]; [11]) [µM]	IC50 (MYB [4]; Table 13A) [µM]	IC50 (HTT [5]; Table 13A) [µM]	IC50 (Target C [6]; Table 13A) [µM]	IC50 (HTT [1]; [12]) [µM]
							CN(c1ccc(-c2ccc(-n3cccn3)c3ncsc23)nn1)[C@@H]1C[C@H]2CC[C@@H](C1)N2 [Compound 344]	0.1 to 1	< 0.1	0.1 to 1	0.1 to 1	0.1 to 1	< 0.1	0.1 to 1	0.1 to 1	< 0.1	0.1 to 1	
							CN(c1ccc(-c2ccc(-c3cn[nH]c3)c3ncsc23)nn1)[C@H]1[C@@H]2CNC[C@@H]21 [Compound 205]	> 10	> 10	> 10	> 10	> 10	1 to 10	> 10	1 to 10	> 10	1 to 10	> 10
1 to 10	> 10	1 to 10	> 10	1 to 10	0.1 to 1	1 to 10	COc1nc(-c2ccc(OC3CC(C)(C)NC(C)(C)C3)nc2)ccc1-c1cnn(C)n1 [Compound 992]											
1 to 10	> 10	1 to 10	> 10	1 to 10	1 to 10	1 to 10	COc1nc(-c2ccc(OC3CC(C)(C)NC(C)(C)C3)nn2)ccc1-n1cccn1 [Compound 934]											
							CC1(C)CC(Nc2ccc(-c3ccc(-n4cccn4)c4[nH]ncc34)nn2)CC(C)(C)N1 [Compound 558]		0.1 to 1			0.1 to 1	< 0.1	0.1 to 1	0.1 to 1	< 0.1	< 0.1	
							CC1(C)CC(Oc2ccc(-c3ccc(-n4cccn4)c4[nH]ncc34)nn2)CC(C)(C)N1 [Compound 554]		0.1 to 1			0.1 to 1	0.1 to 1	1 to 10	0.1 to 1	0.1 to 1	0.1 to 1	
							CC1(C)CC(Oc2ccc(-c3ccc(-c4cn[nH]c4)c4ncsc34)nn2)CC(C)(C)N1 [Compound 181]	> 10	> 10	> 10	> 10	> 10	< 0.1	> 10	< 0.1	< 0.1	< 0.1	> 10
							CN(c1ccc(-c2ccc(-c3cnn(C)c3)c3scnc23)nn1)C1CC(C)(C)NC(C)(C)C1 [Compound 175]	1 to 10	> 10	> 10	1 to 10	> 10	1 to 10	> 10	1 to 10	1 to 10	1 to 10	> 10
1 to 10	1 to 10	1 to 10	1 to 10	1 to 10	1 to 10	1 to 10	COc1nc(-c2ccc(N3CCC(NC(C)(C)C)C3)nn2)ccc1-n1cccn1 (centres unmarked) [Compound 957]											
							c1cnn(-c2ccc(-c3ccc(N[C@@H]4C[C@H]5CC[C@@H](C4)N5)nn3)c3scnc23)c1 [Compound 343]	0.1 to 1	< 0.1	0.1 to 1	0.1 to 1	0.1 to 1	< 0.1	0.1 to 1	0.1 to 1	< 0.1	0.1 to 1	
							CN(c1ccc(-c2ccc(-c3ccn(C)c(=O)c3)c3ncsc23)nn1)C1CC(C)(C)NC(C)(C)C1 [Compound 279]	1 to 10	1 to 10	1 to 10	> 10	1 to 10	0.1 to 1	> 10	1 to 10	1 to 10	1 to 10	1 to 10
0.1 to 1	1 to 10	0.1 to 1	1 to 10	1 to 10	0.1 to 1	1 to 10	CC1(C)CC(Oc2ccc(-c3ccc(-c4cn[nH]c4)c(OC4CC4)n3)nn2)CC(C)(C)N1 [Compound 968]											
1 to 10	> 10	0.1 to 1	> 10	1 to 10	1 to 10	1 to 10	COc1nc(-c2ccc(NC3CCNCC3)nc2)ccc1-c1cnn(C)n1 [Compound 988]											
0.1 to 1	1 to 10	0.1 to 1	1 to 10	1 to 10	0.1 to 1	0.1 to 1	COc1nc(-c2ccc(OC3CC(C)(C)NC(C)(C)C3)nc2)ccc1-c1cn[nH]c1 [Compound 989]											
							c1nc2c(-c3cn[nH]c3)ccc(-c3ccc(N(C4CC4)C4C[C@H]5CC[C@@H](C4)N5)nn3)c2s1 (stereo partly drawn) [Compound 360, (exo)-N-cyclopropyl-N-{6-[4-(1H-pyrazol-4-yl)-1,3-benzothiazol-7-yl]pyridazin-3-yl}-8-azabicyclo [3.2.1] octan-3-amine]	< 0.1	< 0.1	0.1 to 1	0.1 to 1	0.1 to 1	0.1 to 1	0.1 to 1	0.1 to 1	0.1 to 1	< 0.1	
							c1n[nH]cc1-c1ccc(-c2ccc(O[C@@H]3C[C@H]4CC[C@@H](C3)N4)nn2)c2cn[nH]c12 [Compound 328]	> 10	> 10	> 10	> 10	> 10	1 to 10	> 10	1 to 10	> 10	> 10	> 10
							c1cnn(-c2ccc(-c3cnc(N4CCC(NC5CC5)C4)nn3)c3cn[nH]c23)c1 (centres unmarked) [Compound 484, N-cyclopropyl-1-[6-(7-pyrazol-1-yl-1H-indazol-4-yl)-1,2,4-triazin-3-yl]pyrrolidin-3-amine]		1 to 10			> 10	1 to 10	> 10	> 10	1 to 10	1 to 10	
							c1n[nH]cc1-c1ccc(-c2ccc(N3CCC4(CCCNC4)C3)nn2)c2[nH]ncc12 (centres unmarked) [Compound 252]	> 10	> 10	> 10	> 10	> 10	1 to 10	> 10	1 to 10	> 10	> 10	> 10
							Cc1n[nH]c2c(-c3ccc(N(C)[C@@H]4C[C@H]5CC[C@@H](C4)N5)nn3)ccc(-c3cnn(C)n3)c12 [Compound 375, (1R,3S,5S)-N-methyl-N-{6-[3-methyl-4-(2-methyl-1,2,3-triazol-4-yl)-1H-indazol-7-yl]pyridazin-3-yl}-8-azabicyclo[3.2.1]octan-3-amine]	> 10	> 10	> 10	> 10	> 10	> 10	> 10	> 10	> 10	> 10	> 10

Structure (SMILES)	IC50 (HTT [1]; [13]) [µM]	IC50 (MYB [2]; [14]) [µM]	IC50 (SMN2; [15]) [µM]	IC50 (Target C [3]; [15]) [µM]	IC50 (MYB [4]; Table 13B) [µM]	IC50 (HTT [5]; Table 13B) [µM]	IC50 (Target C [6]; Table 13B) [µM]	AC50 (HTT [1]; [7]) [µM]	IC50 (HTT [1]; [8]) [µM]	IC50 (MYB [2]; [9]) [µM]	AC50 (MYB [2]; [7]) [µM]	IC50 (MYB [2]; [10]) [µM]	IC50 (SMN2; [11]) [µM]	IC50 (Target C [3]; [11]) [µM]	IC50 (MYB [4]; Table 13A) [µM]	IC50 (HTT [5]; Table 13A) [µM]	IC50 (Target C [6]; Table 13A) [µM]	IC50 (HTT [1]; [12]) [µM]
COc1nc(-c2ccc(N(C)[C@@H]3C[C@H]4CC[C@@H](C3)N4)nn2)cnc1-c1cn[nH]c1 [Compound 928]	0.1 to 1	0.1 to 1	< 0.1	0.1 to 1	0.1 to 1	0.1 to 1	0.1 to 1											
COc1nc(-c2ccc(N(C)C3C[C@H]4CC[C@@H](C3)N4)nn2)ccc1-c1cnn(C)n1 (some centres unmarked) [Compound 932]	0.1 to 1	0.1 to 1	0.1 to 1	0.1 to 1	0.1 to 1	0.1 to 1	0.1 to 1											
COc1nc(-c2ccc(N(C)C3CC(C)(C)NC(C)(C)C3)nn2)ccc1-c1cnn(C)n1 [Compound 927]	0.1 to 1	1 to 10	0.1 to 1	1 to 10	0.1 to 1	0.1 to 1	0.1 to 1											
